target: Recombinant human Mat2a (Homo sapiens (Human), UniProt P31153); experiment: Determination of Mat2A activity: 384 well format absorbance-based Mat2A inhibition assay; type: biochemical; settings: 12.5 nM Mat2A, 100 μM ATP and Methionine, 2% DMSO, 120 minutes at RT, Biomol Green, absorbance at 635 nm
Protocol: Determination of Mat2A Activity
Measurement of Mat2A inhibition is performed in 384 well format absorbance-based assay.
Recombinant human Mat2a (12.5 nM) and serial diluted compounds in DMSO (range of concentrations from 10 μM to […]) or controls (DMSO) are incubated for 15 minutes at room temperature (RT) in assay buffer containing 50 mM HEPES pH 7.5, 50 mM KCl, 50 mM MgCl2, 0.01% Tween 20 and 10 mM DTT. The reaction is initiated by the addition of the combined substrates ATP and Methionine, each at a final concentration of 100 μM. Final assay condition are 12.5 nM Mat2A, 100 μM ATP and Methionine Substrates and 2% DMSO. After 120 minutes of incubation at RT, the reaction is stopped by the addition of Biomol Green. The absorbance signal is measured at λ=635 nm with a multiplate reader (BMG Pherastar reader or equivalent) after 30 min of equilibration at RT.

Sequence of Recombinant human Mat2a (P31153 whole entry): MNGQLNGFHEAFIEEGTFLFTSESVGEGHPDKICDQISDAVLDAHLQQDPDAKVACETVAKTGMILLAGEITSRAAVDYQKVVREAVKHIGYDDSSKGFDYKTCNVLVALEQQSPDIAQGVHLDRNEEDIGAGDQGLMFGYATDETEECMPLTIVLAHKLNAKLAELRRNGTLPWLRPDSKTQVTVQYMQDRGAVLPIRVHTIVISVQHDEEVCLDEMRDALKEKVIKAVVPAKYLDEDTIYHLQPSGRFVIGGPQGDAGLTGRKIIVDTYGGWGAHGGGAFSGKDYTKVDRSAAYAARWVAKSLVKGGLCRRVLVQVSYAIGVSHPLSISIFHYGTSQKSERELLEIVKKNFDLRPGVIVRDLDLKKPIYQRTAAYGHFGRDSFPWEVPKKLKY

| SMILES | IC50 [nM] |
| --- | --- |
| COc1ccccc1C(=O)n1nc(N)c2ccc(C3CC3)nc21 [Example 7, (3-amino-6-cyclopropylpyrazolo[3,4-b]pyridin-1-yl)-(2-methoxyphenyl)methanone] | 120 |
| Cc1ncccc1C(=O)n1nc(N)c2ccc(C3CC3(F)F)nc21 (stereo not drawn) [Example 49, (3-amino-6-(2,2-difluorocyclopropyl)-1H-pyrazolo[3,4-b]pyridin-1-yl)(2-methylpyridin-3-yl)methanone] | 22 |
| Cc1ccccc1C(=O)n1nc(N)c2ccc(C(F)(F)F)nc21 [Example 25, (3-amino-6-(trifluoromethyl)-1H-pyrazolo[3,4-b]pyridin-1-yl)(o-tolyl)methanone] | 290 |
| CCc1ccccc1C(=O)n1nc(N)c2ccc(C3CC3)nc21 [Example 60, (3-amino-6-cyclopropyl-1H-pyrazolo[3,4-b]pyridin-1-yl)(2-ethylphenyl)methanone] | 37 |
| COC1CCCCC1C(=O)n1nc(N)c2ccc(C3CC3)nc21 (stereo not drawn) [Example 37, (3-amino-6-cyclopropyl-1H-pyrazolo[3,4-b]pyridin-1-yl)(2-methoxycyclohexyl)methanone] | 290 |
| COc1ccccc1C(=O)n1nc(N)c2cc3c(nc21)CC(C)CC3 (stereo not drawn) [Example 38, (3-amino-7-methyl-5,6,7,8-tetrahydro-1H-pyrazolo[3,4-b]quinolin-1-yl)(2-methoxyphenyl)methanone] | 120 |
| COc1ccccc1C(=O)n1nc(N)c2cc3c(nc21)CC(C)(C)CC3 [Example 21, (3-amino-7,7-dimethyl-5,6,7,8-tetrahydro-1H-pyrazolo[3,4-b]quinolin-1-yl)(2-methoxyphenyl)methanone] | 140 |
| Cc1ccccc1C(=O)n1nc(N)c2ccc(C3=CCOC3)nc21 [Example 36, [3-amino-6-(2,5-dihydrofuran-3-yl)pyrazolo[3,4-b]pyridin-1-yl]-(2-methylyphenyl)methanone] | 67 |
| Cc1ocnc1C(=O)n1nc(N)c2ccc(C3CC3)nc21 [Example 62, (3-amino-6-cyclopropyl-1H-pyrazolo[3,4-b]pyridin-1-yl)(5-methyloxazol-4-yl)methanone] | 350 |
| COc1ccccc1C(=O)n1nc(N)c2cc(Cl)c(C3CC3)nc21 [Example 8, (3-amino-5-chloro-6-cyclopropyl-1H-pyrazolo[3,4-b]pyridin-1-yl)(2-methoxyphenyl)methanone] | 56 |
| Cc1c(F)cccc1C(=O)n1nc(N)c2ccc(C3CC3)nc21 [Example 54, (3-amino-6-cyclopropyl-1H-pyrazolo[3,4-b]pyridin-1-yl)(3-fluoro-2-methylphenyl)methanone] | 210 |
| Nc1nn(C(=O)c2cccnc2Cl)c2nc(C3CC3)ccc12 [Example 76, (3-amino-6-cyclopropyl-1H-pyrazolo[3,4-b]pyridin-1-yl)(2-chloropyridin-3-yl)methanone] | 17 |
| Cc1ccccc1C(=O)n1nc(N)c2ccc(C3CC3(F)F)nc21 (stereo not drawn) [Example 41, (3-amino-6-(2,2-difluorocyclopropyl)-1H-pyrazolo[3,4-b]pyridin-1-yl)(o-tolyl)methanone] | 150 |
| COc1ccccc1C(=O)n1nc(N)c2cnc(N3CCCC3)nc21 [Example 16, (3-amino-6-(pyrrolidin-1-yl)-1H-pyrazolo[3,4-d]pyrimidin-1-yl)(2-methoxyphenyl)methanone] | 65 |
| COc1cc(F)ccc1C(=O)n1nc(N)c2ccc(C3CC3)nc21 [Example 58, (3-amino-6-cyclopropyl-1H-pyrazolo[3,4-b]pyridin-1-yl)(4-fluoro-2-methoxyphenyl)methanone] | 300 |
| COc1ccccc1C(=O)n1nc(N)c2ccc(N3C4CCC3CC4)nc21 [Example 53, [3-amino-6-(7-azabicyclo[2.2.1]heptan-7-yl)pyrazolo[3,4-b]pyridin-1-yl]-(2-methoxyphenyl)methanone] | 240 |
| Nc1nn(C(=O)c2ccccc2Cl)c2nc(N3CCCC3)ccc12 [Example 4, (3-amino-6-(pyrrolidin-1-yl)-1H-pyrazolo[3,4-b]pyridin-1-yl)(2-chlorophenyl)methanone] | 140 |
| Nc1nn(C(=O)C2CCOCC2)c2nc(C3CC3)ccc12 [Example 67, (3-amino-6-cyclopropyl-1H-pyrazolo[3,4-b]pyridin-1-yl)(tetrahydro-2H-pyran-4-yl)methanone] | 49 |
| Cc1ncccc1C(=O)n1nc(N)c2ccc(C3CC3)nc21 [Example 68, (3-amino-6-cyclopropyl-1H-pyrazolo[3,4-b]pyridin-1-yl)(2-methylpyridin-methylpyridine-3-yl)methanone] | 19 |
| COc1ncccc1C(=O)n1nc(N)c2ccc(C3CC3)nc21 [Example 75, (3-amino-6-cyclopropyl-1H-pyrazolo[3,4-b]pyridin-1-yl)(2-methoxypyridin-3-yl)methanone] | 26 |

| SMILES | IC50 [nM] |
| --- | --- |
| Cc1ccccc1C(=O)n1nc(N)c2ccc(C3=CCCC3)nc21 [Example 30, [3-amino-6-(cyclopenten-1-yl)pyrazolo[3,4-b]pyridin-1-yl]-(2-methylphenyl)methanone] | 53 |
| Cc1ccccc1C(=O)n1nc(N)c2ccc(N3CCCC3)nc21 [Example 5, (3-amino-6-(pyrrolidin-1-yl)-1H-pyrazolo[3,4-b]pyridin-1-yl)(o-tolyl)methanone] | 94 |
| Cc1cccc(C(=O)n2nc(N)c3ccc(C4CC4)nc32)c1C [Example 55, (3-amino-6-cyclopropyl-1H-pyrazolo[3,4-b]pyridin-1-yl)(2,3-dimethylphenyl)methanone] | 320 |
| COc1c(F)cccc1C(=O)n1nc(N)c2ccc(C3CC3)nc21 [Example 57, (3-amino-6-cyclopropyl-1H-pyrazolo[3,4-b]pyridin-1-yl)(3-fluoro-2-methoxyphenyl)methanone] | 110 |
| COc1ccccc1C(=O)n1nc(N)c2ccc(N3CCCC3)nc21 [Example 3, (3-amino-6-(pyrrolidin-1-yl)-1H-pyrazolo[3,4-b]pyridin-1-yl)(2-methoxyphenyl)methanone] | 53 |
| Cc1ccccc1C(=O)n1nc(N)c2cc(F)c(N3CCCC3)nc21 [Example 13, (3-amino-5-fluoro-6-(pyrrolidin-1-yl)-1H-pyrazolo[3,4-b]pyridin-1-yl)(o-tolyl)methanone] | 110 |
| COc1c(F)cccc1C(=O)n1nc(N)c2cc(F)c(N3CCCC3)nc21 [Example 46, (3-amino-5-fluoro-6-(pyrrolidin-1-yl)-1H-pyrazolo[3,4-b]pyridin-1-yl)(3-fluoro-2-methoxyphenyl)methanone] | 55 |
| COc1ccccc1C(=O)n1nc(N)c2ccc(C3=CCCCC3)nc21 [Example 6, [3-amino-6-(cyclohexen-1-yl)pyrazolo[3,4-b]pyridin-1-yl]-(2-methoxyphenyl)methanone] | 110 |
| Cc1ccccc1C(=O)n1nc(N)c2ccc([C@H]3C[C@@H]3C)nc21 (racemic) [Example 33, (3-amino-6-((1RS,2RS)-2-methylcyclopropyl)-1H-pyrazolo[3,4-b]pyridin-1-yl)(o-tolyl)methanone] | 28 |
| COc1c(Cl)cccc1C(=O)n1nc(N)c2ccc(C3CC3)nc21 [Example 71, (3-amino-6-cyclopropyl-1H-pyrazolo[3,4-b]pyridin-1-yl)(3-chloro-2-methoxyphenyl)methanone] | 480 |
| COc1c(C#N)cccc1C(=O)n1nc(N)c2ccc(C3CC3)nc21 [Example 72, 3-(3-amino-6-cyclopropyl-1H-cyclopropyl-1H-pyrazolo[3,4-b]pyridine-1-carbonyl)-2-methoxybenzonitrile] | 37 |
| COc1ccccc1C(=O)n1nc(N)c2ccc(N3CC(F)(F)C3)nc21 [Example 27, (3-amino-6-(3,3-difluoroazetidin-1-yl)-1H-pyrazolo[3,4-b]pyridin-1-yl)(2-methoxyphenyl)methanone] | 69 |
| Cc1ccccc1C(=O)n1nc(N)c2ccc(C3(C)CC3)nc21 [Example 48, (3-amino-6-(1-methylcyclopropyl)-1H-pyrazolo[3,4-b]pyridin-1-yl)(o-tolyl)methanone] | 130 |
| Cc1ccccc1C(=O)n1nc(N)c2ccc(C3CCC3)nc21 [Example 31, (3-amino-6-cyclobutyl-1H-pyrazolo[3,4-b]pyridin-1-yl)(o-tolyl)methanone] | 200 |
| COc1ccccc1C(=O)n1nc(N)c2ccc(C3=CCCCO3)nc21 [Example 22, [3-amino-6-(3,4-dihydro-2H-pyran-6-yl)pyrazolo[3,4-b]pyridin-1-yl]-(2-methoxyphenyl)methanone] | 440 |
| Nc1nn(C(=O)c2ccccc2OC(F)F)c2nc(C3CC3)ccc12 [Example 61, (3-amino-6-cyclopropyl-1H-pyrazolo[3,4-b]pyridin-1-yl)(2-(difluoromethoxy)phenyl)methanone] | 130 |
| Cc1ccccc1C(=O)n1nc(N)c2ccc(C3CC3)nc21 [Example 20, (3-amino-6-cyclopropylpyrazolo[3,4-b]pyridin-1-yl)-(2-methylphenyl)methanone] | 160 |
| COc1ccccc1C(=O)n1nc(N)c2ccc(C3=CCCC3)nc21 [Example 23, [3-amino-6-(cyclopenten-1-yl)pyrazolo[3,4-b]pyridin-1-yl]-(2-methoxyphenyl)methanone] | 20 |
| Cc1ccccc1C(=O)n1nc(N)c2cnc(N3CCCC3)nc21 [Example 17, (3-amino-6-(pyrrolidin-1-yl)-1H-pyrazolo[3,4-d]pyrimidin-1-yl)(o-tolyl)methanone] | 280 |

— patent US20230382911A1 (Hoffmann-La Roche Inc., priority 2021, published 2023)
